We go through 33 molecules from the supplement of paper PMC6965134.

± gives the standard deviation of the averaged measurements.

The data set is described as follows: TIMS collisional cross section (CCS, N2) of the lipid ion; higher = larger ion cross section. The following applies: ionization mode: negative, one isomer drawn. The protocol: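 Lipid extracts of human plasma (NIST SRM 1950), mouse liver or HeLa cells were separated by nanoflow C18 LC (30 min gradient) and analysed by TIMS-PASEF on a timsTOF Pro. Ion mobility was calibrated with the Agilent tuning mix (negative mode ions) and converted to collisional cross sections (Mason–Schamp, N2).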
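Note: lipids from MTBE extraction, five replicate injections per sample, 100 ms TIMS ramp spanning 0.6–1.95 Vs/cm², lipid identity assigned from PASEF MS/MS spectra.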

For the molecule `CCCCCCCCCCCCCCCCCC(=O)OC[C@H](COP(=O)(O)OC[C@H](N)C(=O)O)OC(=O)CCCCCCCCCCCCCC` [PS 18:0_15:0@], under “sample type: Human plasma, ion (formula + adduct): [C39H76NO10P+OAcO] 1-”, the “TIMS collisional cross section” value came out at 293.3 Å².

Take `CC/C=C\C/C=C\C/C=C\C/C=C\C/C=C\C/C=C\CCC(=O)OC[C@H](COP(=O)(O)OC[C@@H](O)CO)OC(=O)CC/C=C\C/C=C\C/C=C\C/C=C\C/C=C\C/C=C\CC` [PG 22:6_22:6]: the “TIMS collisional cross section” value (sample type: Mouse Liver, ion (formula + adduct): [C50H75O10P-H] 1-) is given as 294.8 Å².

Consider `CCCCC/C=C\C/C=C\C/C=C\C/C=C\CCCC(=O)OC[C@H](COP(=O)(O)OCCN)OC(=O)CCCCCCCCCCCCCCCCCCC` [PE 20:4_20:0], for which, where the note is “sample type: Mouse Liver, ion (formula + adduct): [C45H82NO8P-H] 1-”, the “TIMS collisional cross section” value is 281.8 Å².

Take `CC/C=C\C/C=C\C/C=C\C/C=C\C/C=C\CCCC(=O)O[C@H](CO/C=C\CCCCCCCCCCCCCCCC)COP(=O)([O-])OCC[N+](C)(C)C` [PC P- 18:0@_20:5]: for the setting “sample type: Human plasma, ion (formula + adduct): [C46H82NO7P+HCOO] 1-”, the “TIMS collisional cross section” value came out at 296.1 Å².

On to `CC/C=C\C/C=C\C/C=C\C/C=C\C/C=C\CCCC(=O)OC[C@H](COP(=O)(O)OC1[C@H](O)[C@H](O)C(O)[C@H](O)[C@H]1O)OC(=O)CCCCCCCCCCCCCCCCC` (some centres not stated) [PI 20:5_18:0@], for which, under “sample type: Mouse Liver, ion (formula + adduct): [C47H81O13P-H] 1-”, the “TIMS collisional cross section” value stood at 296.4 Å².

As to `CCCCCCCCCCCCCCCCCC(=O)OC[C@H](COP(=O)([O-])OCC[N+](C)(C)C)OC(=O)CCCCCCCCCCCCCCCCC` [PC 18:0_18:0], the “TIMS collisional cross section” value (sample type: Mouse Liver, ion (formula + adduct): [C44H88NO8P+HCOO] 1-) is 298.4 Å².

As to `CCCCC/C=C\C/C=C\C/C=C\C/C=C\CCCCCC(=O)OC[C@H](COP(=O)(O)OC[C@H](N)C(=O)O)OC(=O)CCCCCCCCCCCCCCCCC` [PS 22:4_18:0], where the note is “sample type: Mouse Liver, ion (formula + adduct): [C46H82NO10P-H] 1-”, the “TIMS collisional cross section” value is 291.4 Å².

Consider `CCCCCCCCCCCCCC(=O)O[C@H](COC(=O)CCCCCCCCCCC)COP(=O)([O-])OCC[N+](C)(C)C` [PC 12:0_14:0], for which the “TIMS collisional cross section” value (sample type: Human plasma, ion (formula + adduct): [C34H68NO8P+HCOO] 1-) stood at 270.8 Å².

Turning to `CC/C=C\C/C=C\C/C=C\C/C=C\C/C=C\C/C=C\CCC(=O)O[C@H](CO/C=C\CCCCCCCCCCCCCCCC)COP(=O)([O-])OCC[N+](C)(C)C` [PC P- 18:0@_22:6], the “TIMS collisional cross section” value (sample type: Mouse Liver, ion (formula + adduct): [C48H84NO7P-CH3] 1-) was 285.8 Å².

For `CCCCCCCCCCCCCCCCCC(=O)OC[C@@H](O)COP(=O)(O)OC1C(O)C(O)C(O)[C@@H](O)C1O` (some centres not stated) [LPI 18:0_0:0], the “TIMS collisional cross section” value (sample type: Human plasma, ion (formula + adduct): [C27H53O12P-H] 1-) worked out at 239.4 Å².

Consider `CCCCCC/C=C\CCCCCCCC(=O)OC[C@@H](O)COP(=O)(O)O` [LPA 16:1_0:0], for which, where the note is “sample type: Human plasma, ion (formula + adduct): [C19H37O7P-H] 1-”, the “TIMS collisional cross section” value amounted to 198.2 Å².

Consider `CCCCCC/C=C\CCCCCCCC(=O)O[C@H](COC(=O)CCCCCCCCCCCCCCC)COP(=O)([O-])OCC[N+](C)(C)C` [PC 16:0_16:1], for which the “TIMS collisional cross section” value (sample type: Human plasma, ion (formula + adduct): [C40H78NO8P+HCOO] 1-) is on record as 286.6 Å².

Consider `CC/C=C\C/C=C\C/C=C\C/C=C\CCCCCCC(=O)O[C@H](COCCCCCCCC/C=C\CCCCCC)COP(=O)([O-])OCC[N+](C)(C)C` [PC O- 16:1_20:4], for which the “TIMS collisional cross section” value (sample type: Human plasma, ion (formula + adduct): [C44H80NO7P+HCOO] 1-) was 292.2 Å².

As for `CCCCC/C=C\C/C=C\CCCCCCCC(=O)O[C@H](COC(=O)CCCCCCCCCCCCCCCC)COP(=O)(O)OCCN` [PE 17:0_18:2], under “sample type: Mouse Liver, ion (formula + adduct): [C40H76NO8P-H] 1-”, the “TIMS collisional cross section” value is recorded as 269.4 Å².

`CC/C=C\C/C=C\C/C=C\C/C=C\C/C=C\CCCC(=O)O[C@H](COC(=O)CCCCCCC/C=C\CCCC)COP(=O)([O-])OCC[N+](C)(C)C` [PC 14:1@_20:5]: the “TIMS collisional cross section” value (sample type: Mouse Liver, ion (formula + adduct): [C42H72NO8P-H] 1-) worked out at 269.9 Å².

Regarding `CCCCC/C=C\C/C=C\C/C=C\CCCCCCC(=O)OC[C@@H](O)COP(=O)([O-])OCC[N+](C)(C)C` [LPC 20:3_0:0], the “TIMS collisional cross section” value runs as follows: (sample type: Human plasma, ion (formula + adduct): [C28H52NO7P+HCOO] 1-) 245.03 ± 0.87 Å²; (sample type: Human plasma, ion (formula + adduct): [C28H52NO7P-CH3] 1-) 225.9 Å².

Take `CCCCCCCC/C=C\CCCCCCCCCC(=O)OC[C@@H](O)COP(=O)(O)OCCN` [LPE 20:1_0:0]: the “TIMS collisional cross section” value (sample type: Mouse Liver, ion (formula + adduct): [C25H50NO7P-H] 1-) is 222.6 Å².

In the case of `CCCCCCCC/C=C\CCCCCCCC(=O)N[C@@H](COP(=O)([O-])OCC[N+](C)(C)C)[C@H](O)/C=C/CCCCCCCCCCC` [SM d16:1_18:1@], the “TIMS collisional cross section” value (sample type: Human plasma, ion (formula + adduct): [C39H77N2O6P+HCOO] 1-) is reported as 285 Å².

As for `CC/C=C\C/C=C\CC(O)/C=C/C=C\C/C=C\C/C=C\CCC(=O)O[C@H](CO/C=C\CCCCCCCCCCCCCC)COP(=O)(O)OCCN` (some centres not stated) [Oxidized PE 16:0@_22:6], the “TIMS collisional cross section” value (sample type: Human plasma, ion (formula + adduct): [C43H74NO8P-H] 1-) amounted to 277.4 Å².

For the molecule `CC/C=C\C/C=C\C/C=C\C/C=C\C/C=C\C/C=C\CCC(=O)O[C@H](COC(=O)CCCCCCC/C=C\CCCCCCC)COP(=O)(O)OC[C@@H](O)CO` [PG 17:1@_22:6], the “TIMS collisional cross section” value (sample type: Human plasma, ion (formula + adduct): [C45H75O10P+OAcO] 1-) is recorded as 294.7 Å².

As for `CCCCCCCCCCCCCCCCCCCCCC(=O)OC[C@@H](O)COP(=O)([O-])OCC[N+](C)(C)C` [LPC 22:0_0:0], the “TIMS collisional cross section” value (sample type: Human plasma, ion (formula + adduct): [C30H62NO7P+HCOO] 1-) was 258.6 Å² and the “TIMS collisional cross section” value (sample type: Mouse Liver, ion (formula + adduct): [C30H62NO7P+HCOO] 1-) stood at 258.6 Å².

For the molecule `CCCCCCCCCCCCCCCCC(=O)O[C@H](COC(=O)CCCCCCCCCCCCCCC)COP(=O)([O-])OCC[N+](C)(C)C` [PC 16:0_17:0], the “TIMS collisional cross section” value (sample type: Human plasma, ion (formula + adduct): [C41H82NO8P+HCOO] 1-) was determined as 290.3 Å².

Regarding `CC/C=C\C/C=C\C/C=C\C/C=C\C/C=C\C/C=C\CCC(=O)O[C@H](COCCCCCCCCCCCCCCCC)COP(=O)(O)OCCN` [PE O- 16:0@_22:6], the “TIMS collisional cross section” value runs as follows: (sample type: Human plasma, ion (formula + adduct): [C43H76NO7P-H] 1-) 274 Å²; (sample type: Mouse Liver, ion (formula + adduct): [C43H76NO7P-H] 1-) 273.4 Å².

Regarding `CCCCCCCCC/C=C\CCCCCCCC(=O)O[C@H](COC(=O)CCCCCCCCCCCCCCCCC)COP(=O)(O)OCCN` [PE 18:0_19:1], under “sample type: Mouse Liver, ion (formula + adduct): [C42H82NO8P-H] 1-”, the “TIMS collisional cross section” value worked out at 278 Å².

In the case of `CCCCCCCCCCCCC/C=C/[C@@H](O)[C@H](COP(=O)([O-])OCC[N+](C)(C)C)NC(=O)CCCCCCCCCCCCC` [SM d18:1_14:0@], the “TIMS collisional cross section” value (sample type: Human plasma, ion (formula + adduct): [C37H75N2O6P+HCOO] 1-) stood at 280.6 Å².

As to `CCCCCCCCC=CCCCCCCCC(=O)OC(COC(=O)CCCCCCCCCCCCCCC)COP(=O)(O)OCC(O)CO` (configuration not stated) [PG 16:0_18:1], where the note is “sample type: Mouse Liver, ion (formula + adduct): [C40H77O10P-H] 1-”, the “TIMS collisional cross section” value turned out to be 275.7 Å².

As for `CC/C=C\C/C=C\C/C=C\C/C=C\C/C=C\C/C=C\CCC(=O)O[C@H](COC(=O)CCCCCCCCCCCCC)COP(=O)([O-])OCC[N+](C)(C)C` [PC 14:0@_22:6], where the note is “sample type: Mouse Liver, ion (formula + adduct): [C44H76NO8P-H] 1-”, the “TIMS collisional cross section” value was determined as 277.87 ± 0.55 Å².

`CCCCCCCCCCCCCCCC(=O)O[C@H](COC(=O)CCCCCCCCCCCCC)COP(=O)([O-])OCC[N+](C)(C)C` [PC 14:0_16:0@]: under “sample type: Mouse Liver, ion (formula + adduct): [C38H76NO8P+HCOO] 1-”, the “TIMS collisional cross section” value turned out to be 283.8 Å².

As for `CCCCC/C=C\C/C=C\C/C=C\C/C=C\CCCC(=O)O[C@H](COC(=O)CCCCCCC/C=C\CCCCC)COP(=O)([O-])OCC[N+](C)(C)C` [PC 15:1@_20:4], the “TIMS collisional cross section” value is, setting by setting: (sample type: Human plasma, ion (formula + adduct): [C43H76NO8P-H] 1-) 275 Å²; (sample type: Mouse Liver, ion (formula + adduct): [C43H76NO8P-H] 1-) 275.6 Å².

Consider `CCCCC/C=C\C/C=C\C/C=C\CCCCCCC(=O)O[C@H](COC(=O)CCCCCCC/C=C\C/C=C\CCCCC)COP(=O)([O-])OCC[N+](C)(C)C` [PC 18:2_20:3], for which the “TIMS collisional cross section” value (sample type: Human plasma, ion (formula + adduct): [C46H82NO8P+HCOO] 1-) stood at 299.2 Å².

For `CCCCC/C=C\CCCCCCCC(=O)OC[C@H](CO)OC(=O)CCCCCCC/C=C\CCCCCCCC` [DG 15:1@_18:1_0:0], the “TIMS collisional cross section” value (sample type: Human plasma, ion (formula + adduct): [C36H66O5-H] 1-) is given as 253.8 Å².

`CCCCCCCCCCCCCCCCCC(=O)OCC(COP(=O)(O)O)OC(=O)CCCCCCCCCCCCCCCCC` (configuration not stated) [PA 18:0_18:0]: the “TIMS collisional cross section” value (sample type: Mouse Liver, ion (formula + adduct): [C39H77O8P+Cl] 1-) was 273.4 Å².

Consider `CCCC/C=C\CCCCCCCC(=O)OCC(COP(=O)(O)OC1C(O)C(O)C(O)C(O)C1O)OC(=O)CCCCCCC/C=C\C/C=C\CCCCC` (configuration not stated) [PI 14:1@_18:2], for which the “TIMS collisional cross section” value (sample type: Human plasma, ion (formula + adduct): [C41H73O13P+AcO] 1-) came out at 287.2 Å².
